# Source: patent publication US20210188843A1, “QUINOLINE COMPOUNDS AND THEIR PREPARATION AND USE AS ANTIMALARIAL AGENTS” (The United States of America,as represented by the …, priority 2018, published 2021)
# Read-outs that look alike come from different tables or passages of the source.
# Columns and labels:
# [1] = tested on: Asexual parasites of P. falciparum strain 3D7; experiment: In vitro drug activity on asexual parasites (SYBR Green assay); type: cell-based; conditions: Plasmodium falciparum, P. falciparum 3D7 asexual stage, 72 h, read-out: Asexual EC50
# Outline: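 Growth was measured by SYBR Green I fluorescence (excitation 490 nm, emission 520 nm) after freeze-thaw lysis and 30 min staining at room temperature. Parasites (0.5% parasitemia, 2% hematocrit) had been incubated 72 h with compound, DMSO below 0.5%. Conditions were run in duplicate with no-drug and RBC-alone controls.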
# [2] = Solubility pH 7.4; type: physicochemical; conditions: aqueous buffer
# [3] = PAMPA permeability; type: in vitro ADME
# [4] = Microsomal stability (rat); type: in vitro ADME; conditions: rat microsomes
# [5] = Table 1, read-out: Microsomal Stability (rat) T1/2
# [6] = Table 3, read-out: Microsomal Stability (rat) T1/2
Structure (SMILES),EC50 ([1]; Table 1),solubility ([2]; Table 1),Papp ([3]; Table 1),"half-life [4, 5]",other results
"Cc1ccc(C#N)cc1-n1c(=N)n(C)c2cnc3ccc(-c4ccccc4)cc3c21 [Compound 35, 3-(2-imino-3-methyl-8-phenyl-2,3-dihydro-1H-imidazo[4,5-c]quinolin-1-yl)-4-methylbenzonitrile]",34 nM,> 39 µg/mL,716 ×10⁻⁶ cm/s,> 30 min,–
Cc1ccc(-c2ccc3ncc4c(c3c2)n(-c2cncnc2C)c(=N)n4C)cc1,–,–,–,–,"EC50 ([1]; Table 3): 1150 nM; solubility ([2]; Table 3): > 38 µg/mL; Papp ([3]; Table 3): 1240 ×10⁻⁶ cm/s; half-life [4, 6]: > 30 min"
CCC(=O)/N=c1/ccc2cnc3ccc(-c4ccc(Cl)cc4)cc3c2n1-c1ccc(C(=O)NC2CC2)cc1,–,–,–,–,"EC50 ([1]; Table 2): 47.5 nM; solubility ([2]; Table 2): < 1 µg/mL; Papp ([3]; Table 2): 445 ×10⁻⁶ cm/s; half-life ([4]; Table 2, read-out: Microsomal Stability (rat) T1/2): 4.8 min"
"Cc1ccc(C#N)cc1-n1c(=N)n(C)c2cnc3ccc(-c4ccc(Cl)cc4)cc3c21 [Compound 137, 3-(8-(4-chlorophenyl)-2-imino-3-methyl-2,3-dihydro-1H-imidazo[4,5-c]quinolin-1-yl)-4-methylbenzonitrile]",43.1 nM,3.6 µg/mL,1260 ×10⁻⁶ cm/s,> 30 min,–
"CC(=O)N1CCN([C@H]2C[C@H](n3c(=N)n(C)c4cnc5ccc(-c6ccc(Cl)cc6)cc5c43)C2)CC1 [Compound 129, 1-(4-((1r,3r)-3-(8-(4-chlorophenyl)-2-imino-3-methyl-2,3-dihydro-1H-imidazo[4,5-c]quinolin-1-yl)cyclobutyl)piperazin-1-yl)ethan-1-one]",12700 nM,> 48 µg/mL,4.6 ×10⁻⁶ cm/s,> 30 min,–
"C/N=c1\n(C)c2cnc3ccc(-c4ccc(Cl)cc4)cc3c2n1-c1cc(C#N)ccc1C [Compound 6, (E)-3-(8-(4-chlorophenyl)-3-methyl-2-(methylimino)-2,3-dihydro-1H-imidazo[4,5-c]quinolin-1-yl)-4-methylbenzonitrile]",279 nM,9.6 µg/mL,921 ×10⁻⁶ cm/s,> 30 min,–
"Cn1c(=N)n(-c2cccc(F)c2)c2c3cc(-c4ccc(Cl)cc4)ccc3ncc21 [Compound 78, 8-(4-chlorophenyl)-1-(3-fluorophenyl)-3-methyl-1,3-dihydro-2H-imidazo[4,5-c]quinolin-2-imine]",309 nM,< 1 µg/mL,629 ×10⁻⁶ cm/s,> 30 min,–
"Cc1ccc(C#N)cc1-n1c(=N)n(C)c2cnc3ccc(-c4ccccn4)cc3c21 [Compound 91, 3-(2-imino-3-methyl-8-(pyridin-2-yl)-2,3-dihydro-1H-imidazo[4,5-c]quinolin-1-yl)-4-methylbenzonitrile]",423 nM,> 39 µg/mL,1370 ×10⁻⁶ cm/s,> 30 min,–
"Cc1ccc(C#N)cc1-n1/c(=N/C(N)=O)n(C)c2cnc3ccc(-c4ccc(F)cc4)cc3c21 [Compound 55, (E)-1-(1-(5-cyano-2-methylphenyl)-8-(4-fluorophenyl)-3-methyl-1,3-dihydro-2H-imidazo[4,5-c]quinolin-2-ylidene)urea]",95.1 nM,1.3 µg/mL,466 ×10⁻⁶ cm/s,> 30 min,–
"Cc1ccc(-c2ccc3ncc4c(c3c2)n(-c2cc(C#N)c(N3CCOCC3)cc2C)c(=N)n4C)cc1 [Compound 145, 5-(2-imino-3-methyl-8-(p-tolyl)-2,3-dihydro-1H-imidazo[4,5-c]quinolin-1-yl)-4-methyl-2-morpholinobenzonitrile]",142 nM,16.7 µg/mL,1140 ×10⁻⁶ cm/s,> 30 min,–
"Cc1ccc(C#N)cc1-n1c(=N)n(C)c2cnc3ccc(-c4ccc(OCCCN(C)C)nc4)cc3c21 [Compound 106, 3-(8-(6-(3-(dimethylamino)propoxy)pyridin-3-yl)-2-imino-3-methyl-2,3-dihydro-1H-imidazo[4,5-c]quinolin-1-yl)-4-methylbenzonitrile]",140 nM,> 49 µg/mL,1.2 ×10⁻⁶ cm/s,> 30 min,–
Cc1ncncc1-n1c(=N)n(C)c2cnc3ccc(-c4cccc(F)c4)cc3c21,–,–,–,–,"EC50 ([1]; Table 3): 1240 nM; solubility ([2]; Table 3): > 38 µg/mL; Papp ([3]; Table 3): 1100 ×10⁻⁶ cm/s; half-life [4, 6]: > 30 min"
"Cc1ccc(C#N)cc1-n1/c(=N/C#N)n(C)c2cnc3ccc(-c4ccc(Cl)cc4)cc3c21 [Compound 8, (E)-N-(8-(4-chlorophenyl)-1-(5-cyano-2-methylphenyl)-3-methyl-1,3-dihydro-2H-imidazo[4,5-c]quinolin-2-ylidene)cyanamide]",59.8 nM,< 1 µg/mL,1190 ×10⁻⁶ cm/s,> 30 min,–
"Cc1nc(N2CCN(C)CC2)c(C#N)cc1-n1c(=N)n(C)c2cnc3ccc(-c4cccc(F)c4)cc3c21 [Compound 143, 5-(8-(3-fluorophenyl)-2-imino-3-methyl-2,3-dihydro-1H-imidazo[4,5-c]quinolin-1-yl)-6-methyl-2-(4-methylpiperazin-1-yl)nicotinonitrile]",374 nM,> 50 µg/mL,776 ×10⁻⁶ cm/s,> 30 min,–
"Cc1ccc(C#N)cc1-n1c(=N)n(C)c2cnc3ccc(-c4cccc(CN(C)C)c4)cc3c21 [Compound 24, 3-(8-(3-((dimethylamino)methyl)phenyl)-2-imino-3-methyl-2,3-dihydro-1H-imidazo[4,5-c]quinolin-1-yl)-4-methylbenzonitrile]",980 nM,> 44 µg/mL,405 ×10⁻⁶ cm/s,> 30 min,–
"Cc1ccc(C#N)cc1-n1/c(=N/C(=N)N)n(C)c2cnc3ccc(-c4ccc(F)cc4)cc3c21 [Compound 56, (E)-1-(1-(5-cyano-2-methylphenyl)-8-(4-fluorophenyl)-3-methyl-1,3-dihydro-2H-imidazo[4,5-c]quinolin-2-ylidene)guanidine]",1460 nM,> 44 µg/mL,1.7 ×10⁻⁶ cm/s,> 30 min,–
"Cc1ccc(C#N)cc1-n1c(=N)n(C)c2cnc3ccc(-c4ncc(Cl)cn4)cc3c21 [Compound 52, 3-(8-(5-chloropyrimidin-2-yl)-2-imino-3-methyl-2,3-dihydro-1H-imidazo[4,5-c]quinolin-1-yl)-4-methylbenzonitrile]",444 nM,> 42 µg/mL,1430 ×10⁻⁶ cm/s,> 30 min,–
Cn1c(=N)n(-c2cncnc2)c2c3cc(-c4ccc(N)nc4)ccc3ncc21,–,–,–,–,"EC50 ([1]; Table 3): 143 nM; solubility ([2]; Table 3): 33.9 µg/mL; Papp ([3]; Table 3): 12.9 ×10⁻⁶ cm/s; half-life [4, 6]: > 30 min"
"Cc1cc(N2CCCCC2)c(C#N)cc1-n1c(=N)n(C)c2cnc3ccc(-c4ccc(Cl)cc4)cc3c21 [Compound 112, 5-(8-(4-chlorophenyl)-2-imino-3-methyl-2,3-dihydro-1H-imidazo[4,5-c]quinolin-1-yl)-4-methyl-2-(piperidin-1-yl)benzonitrile]",1830 nM,< 1 µg/mL,1280 ×10⁻⁶ cm/s,> 30 min,–
"Cc1ccc(C#N)cc1-n1c(=N)n(C)c2cnc3ccc(-c4ccc(Cl)cn4)cc3c21 [Compound 44, 3-(8-(5-chloropyridin-2-yl)-2-imino-3-methyl-2,3-dihydro-1H-imidazo[4,5-c]quinolin-1-yl)-4-methylbenzonitrile]",119 nM,> 42 µg/mL,1560 ×10⁻⁶ cm/s,> 30 min,–
CC(=O)N1CCN(c2ncc(-n3c(=N)n(C)c4cnc5ccc(-c6ccc(Cl)cc6)cc5c43)cn2)CC1,–,–,–,–,"EC50 ([1]; Table 3): 391 nM; solubility ([2]; Table 3): 22.9 µg/mL; Papp ([3]; Table 3): 292 ×10⁻⁶ cm/s; half-life [4, 6]: > 30 min"
"CC(=O)N1CCN(c2nc(C)c(-n3c(=N)n(C)c4cnc5ccc(-c6ccc(Cl)cc6)cc5c43)cc2C#N)CC1 [Compound 130, 2-(4-acetylpiperazin-1-yl)-5-(8-(4-chlorophenyl)-2-imino-3-methyl-2,3-dihydro-1H-imidazo[4,5-c]quinolin-1-yl)-6-methylnicotinonitrile]",22.2 nM,> 54 µg/mL,112 ×10⁻⁶ cm/s,20.2 min,–
"Cc1nc(N2CCOCC2)c(C#N)cc1-n1c(=N)n(C)c2cnc3ccc(-c4ccc(Cl)cc4)cc3c21 [Compound 21, 5-(8-(4-chlorophenyl)-2-imino-3-methyl-2,3-dihydro-H-imidazo[4,5-c]quinolin-1-yl)-6-methyl-2-morpholinonicotinonitrile]",317 nM,4.4 µg/mL,1560 ×10⁻⁶ cm/s,> 30 min,–
"Cc1ccc(C#N)cc1-n1c(=N)n(C)c2cnc3ccc(-c4cccc(N)c4)cc3c21 [Compound 38, 3-(8-(3-aminophenyl)-2-imino-3-methyl-2,3-dihydro-1H-imidazo[4,5-c]quinolin-1-yl)-4-methylbenzonitrile]",83 nM,> 40 µg/mL,435 ×10⁻⁶ cm/s,> 30 min,–
"Cc1ccc(C#N)cc1-n1c(=N)n(C)c2cnc3ccc(-c4cccc(O)c4)cc3c21 [Compound 37, 3-(8-(3-hydroxyphenyl)-2-imino-3-methyl-2,3-dihydro-1H-imidazo[4,5-c]quinolin-1-yl)-4-methylbenzonitrile]",46.1 nM,> 40 µg/mL,10.3 ×10⁻⁶ cm/s,> 30 min,–
Cn1c(=N)n(-c2cncnc2)c2c3cc(-c4ccc(F)cc4)ccc3ncc21,–,–,–,–,"EC50 ([1]; Table 3): 194 nM; solubility ([2]; Table 3): 2 µg/mL; Papp ([3]; Table 3): 26.2 ×10⁻⁶ cm/s; half-life [4, 6]: > 30 min"
"COC(=O)/N=c1\n(C)c2cnc3ccc(-c4ccc(C)nc4)cc3c2n1-c1cc(C#N)ccc1C [Compound 125, methyl (E)-(1-(5-cyano-2-methylphenyl)-3-methyl-8-(6-methylpyridin-3-yl)-1,3-dihydro-2H-imidazo[4,5-c]quinolin-2-ylidene)carbamate]",1.2 nM,12.5 µg/mL,243 ×10⁻⁶ cm/s,> 30 min,–
